Source: patent US4977152A, “Novel tricyclic derivatives which are agonists of cholinergic receptors, and drugs in which they are present” (Societe Anonyme: Sanofi, priority 1986, dated 1990)
Substitutions are numbered along the chain they refer to. Counter-ions that a name gives are not always drawn. Like-named read-outs stand apart in the source and are kept apart here.

Tests used:
[1] = target: T1, M2-type muscarinic cholinergic receptor (Cavia porcellus, UniProt H0VRN8); experiment: Test for affinity for the M2-type muscarinic cholinergic receptor: displacement of [3H]N-methylscopolamine on smooth muscle of guinea-pig ileum; format: binding; details: guinea-pig ileum smooth muscle homogenate, 0.3 nM [3H]NMS, 20 min at 30° C., pH 7.5
T1 construct: on a homogenate of smooth muscle of guinea-pig ileum; from tissue; host or cells: guinea-pig ileum smooth muscle homogenate
T1 sequence (H0VRN8 1-466): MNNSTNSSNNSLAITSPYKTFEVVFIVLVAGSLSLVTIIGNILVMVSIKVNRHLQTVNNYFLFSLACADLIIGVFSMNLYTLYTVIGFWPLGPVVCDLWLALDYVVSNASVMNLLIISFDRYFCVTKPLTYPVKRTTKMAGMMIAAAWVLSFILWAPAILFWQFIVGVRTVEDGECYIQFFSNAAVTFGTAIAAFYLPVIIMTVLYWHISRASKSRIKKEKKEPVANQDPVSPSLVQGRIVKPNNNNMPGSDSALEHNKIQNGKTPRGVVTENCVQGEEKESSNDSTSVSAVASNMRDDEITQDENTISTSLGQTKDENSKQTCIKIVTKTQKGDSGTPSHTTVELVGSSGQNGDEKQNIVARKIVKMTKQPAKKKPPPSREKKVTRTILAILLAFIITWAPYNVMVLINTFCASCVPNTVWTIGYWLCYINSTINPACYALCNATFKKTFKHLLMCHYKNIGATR
From the text: (§1) The M1 -type receptors are concentrated in certain areas of the brain, such as the hippocampus, the cerebral cortex and the striatum, and also in the sympathetic ganglia. These binding sites can be selectively labeled with [^3 H]pirenzepine ([^3 H]PZ). The M2 -type receptors predominate in the heart and ileum and can be labeled with [^3 H]N-methylscopolamine ([^3 H]NMS). To determine the selectivity of our molecules towards the M1 and M2 sites, we studied their interaction in vitro with [^3 H]PZ and [^3 H]NMS bound with a high affinity to membranes of rat hippocampus and membranes of smooth muscle of guinea-pig ileum, respectively.
The interaction with M2 -type muscarinic receptors was studied by in vitro measurement, on a homogenate of smooth muscle of guinea-pig ileum, of the displacement of tritiated N-methylscopolamine ([^3 H]NMS) from its specific binding sites. Aliquots (50 μl) of a 0.625% (w/v) homogenate of smooth muscle of guinea-pig ileum in MEPES buffer (20 mM) containing NaCl (100 mM) and MgCl2 (10 mM) (final pH: 7.5) are incubated for 20 min at 30° C. in the presence of [^3 H]NMS ([…]; final concentration: 0.3 nM) and increasing concentrations of products to be tested. The final volume is 1 ml. The reaction is stopped by centrifugation for 5 min at 15,000 × g. The non-specific binding is determined in the presence of 10 μmol/l of atropine sulfate (Ref.: Hammer R., Berrie C. P., Birdsall N. I. M., Burgen A. S. V. and Hulme E. C., Nature, 283, 90-92, 1980; Hulme E. C., Birdsall N.1.M., Burgen A. S. V. and Mettha P., Mol. pharmacol., 14, 737-750, 1978).
(§2) Table 4 indicates the affinities of the products of the invention for M1 and M2 receptors. The results are expressed as 50% inhibitory concentrations (IC50), i.e. the concentration (in μM) which causes a 50% displacement placement of the tritiated ligand bound to the membrane receptors. The IC50 for displacement of ^3 H-pirenzepine represents the affinity for the M1 receptor; the IC50 for displacement of 3H-NMS represents the affinity for the M2 receptor.

[2] = target: T2, M1-type muscarinic cholinergic receptor (Rattus norvegicus, UniProt P08482); experiment: Test for affinity for the M1-type muscarinic cholinergic receptor: displacement of [3H]pirenzepine on rat hippocampus homogenate; format: binding; details: for IC50: rat hippocampus homogenate, 1 nM [3H]PZ, 2 h at 4° C., pH 7.40; for r = (M2 /M1): ratio of IC50 M2 (3H-NMS, guinea-pig ileum) to IC50 M1 (3H-pirenzepine, rat hippocampus)
T2 sequence (P08482 1-460): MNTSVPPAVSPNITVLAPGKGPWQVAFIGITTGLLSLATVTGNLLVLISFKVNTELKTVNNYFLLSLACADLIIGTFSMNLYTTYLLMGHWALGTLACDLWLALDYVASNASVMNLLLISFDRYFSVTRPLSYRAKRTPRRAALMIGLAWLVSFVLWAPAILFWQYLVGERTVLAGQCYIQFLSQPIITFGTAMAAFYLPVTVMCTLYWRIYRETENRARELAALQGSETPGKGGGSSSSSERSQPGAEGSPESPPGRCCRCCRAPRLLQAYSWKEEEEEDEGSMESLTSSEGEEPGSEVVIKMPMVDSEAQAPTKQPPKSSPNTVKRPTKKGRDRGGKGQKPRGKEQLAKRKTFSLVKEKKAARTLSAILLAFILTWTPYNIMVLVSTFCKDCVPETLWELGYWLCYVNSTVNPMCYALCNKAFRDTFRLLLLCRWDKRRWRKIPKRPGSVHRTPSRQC
From the text: as §1
The interaction of the molecules with M1 -type muscarinic receptors was studied by in vitro measurement, on a homogenate of rat hippocampus, of the displacement of tritiated pirenzepine ([^3 H]PZ) from its specific binding sites. Aliquots (10 μl) of a 5% (w/v) homogenate of rat hippocampus in an Na2 HPO4 buffer (50 mM, pH 7.40) are incubated for 2 h at 4° C. in the presence of [^3 H]pZ ([…]; final concentration: 1 nM) and increasing concentrations of products to be studied. The final volume is 2 ml. The reaction is stopped by centrifugation for 10 min at 50,000 × g. After decantation and washing of the residues, the bound radioactivity is counted by liquid scintillation. The non-specific binding is determined in the presence of 10 μmol/l of atropine sulfate. The 50% inhibitory concentration (IC50) is determined graphically (Ref.: Watson J. D., Roeskoe W. R. and Yamamura H.1., Life Sci., 31, 2019-2029, 1982).
as §2

[3] = target: T3, M1 central muscarinic cholinergic receptors (Mus musculus, UniProt P12657); experiment: Antagonism of rotational behavior induced by intrastriatal injection of pirenzepine in mice; format: in vivo, mice (female, Swiss, CD 1); details: ip, read-out: Pirenzepine antagonism ED50
T3 construct: The intrastriatal injection of PZ into mice induces rotational behavior; from tissue; host or cells: right striatum of living female mice (Swiss, CD 1)
T3 sequence (P12657 1-460): T2 sequence (P08482 1-460) with S309P
Method: Pirenzepine (PZ) is a specific antagonist of M1 central muscarinic cholinergic receptors. The intrastriatal injection of PZ into mice induces rotational behavior. The antagonism of this behavior by the products according to the invention was studied.
The products according to the invention are injected intraperitoneally (i.p.) after solubilization in distilled water or suspension in a 5% solution of gum arabic. The control animals receive an injection of the pure solvent under the same conditions.
The animals used are female mice (Swiss, CD 1, Charles River, France) with a body weight of between 25 and 30 grams.
Pirenzepine is dissolved in a phosphate buffer; the pH of the solution is 6.
The products to be studied or their solvents are injected intraperitoneally, in a volume of 0.4 ml per 20 g of body weight, 15 minutes before a direct injection of pirenzepine at a dose of […] into the right striatum of the mouse, according to the method described by p.
The number of contralateral rotations (rotations in the opposite direction to the side injected) was counted for three 2-minute periods after the injection of pirenzepine: minutes 2 to 4, 8 to 10 and 13 to 15. Each treatment includes 3 to 4 doses and 10 animals per dose. For each treatment, the total number of rotations and the percentage antagonism compared with the control group are calculated.

[4] = mice, i.p. 15 minutes before intrastriatal pirenzepine, 50% reduction in number of rotations

Q: For CCN(CC)CCNc1cc2c(nn1)-c1ccccc1CC2.Cl.Cl [SR 96054 A, 3-(2-Diethylaminoethylamino)-5,6-dihydrobenzo[h]cinnoline dihydrochloride], which IC50 [1] is on record?
A: The IC50 was 7.5 µM.

Q: And the IC50 [2]?
A: The IC50 was 0.21 µM.

Q: And the “r = (M2 /M1)” value [2]?
A: The value was 36.

Q: What about the ED50 [3] of the same compound?
A: The ED50 was 3 mg/kg.

Q: Which results are given for CCN(CC)CCNc1cc2c(nn1)-c1ccccc1CCC2 [SR 95640 A]?
A: IC50 [1]: 2 µM; IC50 [2]: 0.05 µM; r = (M2 /M1) [2]: 40; ED50 [3, 4]: 3 mg/kg

Q: Which IC50 [1] does the source give for CCN1CCCC1CNc1cc2c(nn1)-c1ccccc1CCC2 (centres unmarked) [SR 95879 A, 3-[(1-Ethylpyrrolidin-2-yl)methylamino]-6,7-dihydro-5H-benzocyclohepta-5,6-c]pyridazine dihydrochloride] here?
A: Its IC50 is 1 µM.

Q: What about the IC50 [2] of the same compound?
A: Its IC50 is 0.14 µM.

Q: What about the “r = (M2 /M1)” value [2] of the same compound?
A: The value was 7.

Q: And the ED50 [3, 4]?
A: Its ED50 is 0.3 mg/kg.

Q: What does the source list for CCN(CC)CCNc1cc2c(nn1)-c1cc(N)ccc1CCC2 [SR 95776 A, 10-Amino-3-(Z-diethylaminoethylamino)-6,7-dihydro-5H-benzocyclohepta[5,6-c]pyridazine dihydrochloride]?
A: IC50 [1]: 2 µM; IC50 [2]: 0.2 µM; r = (M2 /M1) [2]: 10

Q: Which IC50 [1] does the source give for Cc1cc2ccccc2c2nnc(NCCN3CCOCC3)cc12 [SR 96057 A, 5-3-(2-morpholinoethylamino)benzo[h]cinnoline dihydrochloride] here?
A: The IC50 was 43 µM.

Q: And the IC50 [2]?
A: Its IC50 is 3 µM.

Q: What about the “r = (M2 /M1)” value [2] of the same compound?
A: Its value is 14.

Q: For CCN(CC)CCCNc1cc2c(nn1)-c1ccccc1CC2.Cl.Cl [SR 95746 A, 3-(3-Diethylaminopropylamino)-5,6-dihydrobenzo[h]-cinnoline dihydrochloride], which IC50 [1] is on record?
A: The IC50 was 25 µM.

Q: What about the IC50 [2] of the same compound?
A: Its IC50 is 1.5 µM.

Q: What about the “r = (M2 /M1)” value [2] of the same compound?
A: The value was 17.

Q: And the ED50 [3]?
A: Its ED50 is 10 to 30 mg/kg.

Q: For CCCCN(CCCC)CCNc1cc2c(nn1)-c1cc(C)c(C)cc1CCC2 [SR 44706 A], which IC50 [1] is on record?
A: The IC50 was 30 µM.

Q: What about the IC50 [2] of the same compound?
A: Its IC50 is 3.6 µM.

Q: What about the “r = (M2 /M1)” value [2] of the same compound?
A: Its value is 8.

Q: Which results are given for c1ccc2c(c1)CCCc1cc(NCCN3CCCCC3)nnc1-2 [SR 44694 A]?
A: IC50 [1]: 3.6 µM; IC50 [2]: 0.15 µM; r = (M2 /M1) [2]: 24

Q: What does the source list for CCN(CC)CCNc1cc2c(nn1)-c1cc(Cl)c(Cl)cc1CCC2.Cl.Cl [SR 44695 A, 9,10-Dichloro-3-(2-diethylaminoethylamino)-6,7-dihydro-5H-benzocyclohepta[5,6-c]pyridazine dihydrochloride]?
A: IC50 [1]: 4.5 µM; IC50 [2]: 0.45 µM; r = (M2 /M1) [2]: 10

Q: What does the source list for Cl.Cl.O=[N+]([O-])c1cccc2c1CCCc1cc(NCCN3CCOCC3)nnc1-2 [SR 96100 A, 3-(2-Morpholinoethylamino)-8-nitro-6,7-dihydro-5H-benzocyclohepta[5,6-c]pyridazine dihydrochloride]?
A: IC50 [1]: 44 µM; IC50 [2]: 0.4 µM; r = (M2 /M1) [2]: 110

Q: What does the source list for CN(C)CCNc1cc2c(nn1)-c1cc(Cl)c(Cl)cc1CCC2 [SR 44696 A]?
A: IC50 [1]: 6.5 µM; IC50 [2]: 0.7 µM; r = (M2 /M1) [2]: 10

Q: Which results are given for Clc1cc2c(cc1Cl)-c1nnc(NCCN3CCCCC3)cc1CCC2 [SR 44705 A]?
A: IC50 [1]: 3 µM; IC50 [2]: 0.18 µM; r = (M2 /M1) [2]: 16

Q: Which IC50 [1] does the source give for CC(C)N(CCNc1cc2c(nn1)-c1cc([N+](=O)[O-])ccc1CCC2)C(C)C [SR 44697 A] here?
A: Its IC50 is 3 µM.

Q: And the IC50 [2]?
A: The IC50 was 0.3 µM.

Q: What about the “r = (M2 /M1)” value [2] of the same compound?
A: The value was 10.

Q: What does the source list for CCN(CC)CCNc1cc2c(nn1)-c1cc(C)c(C)cc1CCCC2.Cl.Cl [SR 44703 A, 3-(2-Diethylaminoethylamino)-10,11-dimethyl-5,6,7,8-tetrahydrobenzocycloocta[5,6-c]pyridazine dihydrochloride]?
A: IC50 [1]: 4 µM; IC50 [2]: 0.1 µM; r = (M2 /M1) [2]: 40

Q: How did the ED50 [3, 4] turn out when O=C1CN(CCNc2cc3c(nn2)-c2ccccc2CCC3)CCO1 [SR 95696 A, 3-Z-(2-Oxomorpholino)ethylamino]-6,7-dihydro-5H-benzocyclohepta[5,6-c]pyridazine hydrochloride] was run?
A: The ED50 was 3 mg/kg.

Q: For Cc1cc2c(cc1C)-c1nnc(NCCN3CCCC3)cc1CCC2 [SR 44650 A], which ED50 [3, 4] is on record?
A: The ED50 was 3 mg/kg.

Q: c1ccc2c(c1)CCCc1cc(NCCCN3CCOCC3)nnc1-2 [SR 95817 A] was tested. Which ED50 [3, 4] did it give?
A: The ED50 was 2 mg/kg.

Q: How did the ED50 [3, 4] turn out when OCCNCCNc1cc2c(nn1)-c1ccccc1CCC2 [SR 95819 A, 3-[2-(2-hydroxyethylamino)ethylamino]-6,7-dihydro-5H-benzocyclohepta[5,6-c]pyridazine] was run?
A: Its ED50 is 10 mg/kg.

Q: Which IC50 [1] does the source give for Cl.Cl.Fc1ccc2c(c1)CCCc1cc(NCCN3CCOCC3)nnc1-2 [SR 96108 A, 9-Fluoro-3 (2-morpholinoethylamino)-6,7-dihydro-5H-benzocyclohepta[5,6-c]pyridazine dihydrochloride] here?
A: Its IC50 is 40 µM.

Q: What about the IC50 [2] of the same compound?
A: Its IC50 is 1 µM.

Q: And the “r = (M2 /M1)” value [2]?
A: The value was 40.
